Structures are written as SMILES.

For data set [1], the system named is thrombocytes. Description: Collagen-induced aggregation of thrombocytes in human platelet-rich plasma (Born and Cross). The data set is classed as cell-based. Particulars: 10 min, platelet-rich plasma of healthy human subjects, incubated 10 minutes at 37° C. before collagen, determined graphically, read-out: EC50 (dosage producing 50% inhibition of the thrombocyte aggregation). The procedure:
The aggregation of thrombocytes was measured according to the method of BORN and CROSS [J. Physiol. 170, 397 (1964)] in the platelet-rich plasma of healthy human test subjects. To inhibit coagulation, the blood was admixed with a 3.14% sodium citrate solution in a volumetric ration of 1:10.
The decrease in optical density was measured and recorded photometrically after the addition of the aggreation-inducing substance. From the angle of inclination of the density curve, the rate of aggregation was estimated (Vmax). The optical density was taken as the point on the curve where the most light was transmitted (O.D.).
Small doses of collagen were chosen, but sufficient to give irreversible aggregation. (Commercial collagen of Hormonchemie, Munich, Germany.)
Before the addition of collagen, the plasma was incubated with the substance for 10 minutes at 37° C.,
The dosage of the test compound which produced a 50% inhibition of the thrombocyte aggregation was determined graphically (EC50).

Data set [2] can be described thus: Acute toxicity after oral administration of a single dose. The format is in vivo. The conditions noted are these: in vivo; mouse, oral single dose 250 mg/kg, 5 mice each, observation time 7 days; read-out: Acute toxicity per os. On the procedure:
(§1) The acute toxicity was determined in groups of 5 mice each after oral administration of a single dose of 250 mg/kg (observation time: 7 days). The test compound was suspended in 2% methyl cellulose, and after addition of some water, each substance was administered to the conscious animals by means of a stomach tube.

In data set [3] the test system is mice. The description is as above. The data set is classed as in vivo. The conditions noted are these: mouse, oral single dose 250 mg/kg, observation time 7 days. The procedure:
as §1

As to `CCSc1ncnc2c(N3CC[S+]([O-])CC3)nc(N3CCNCC3)nc12` [B, 8-Ethylthio-4-(1-oxido-thiomorpholino)-2-piperazino-pyrimido-[5,4-d]-pyrimidine], the EC50 in data set [1] is less than 10 nM.

For the compound `c1ccc(CSc2ncnc3c(N4CCOCC4)nc(N4CCNCC4)nc23)cc1` [C, 8-Benzylthio-4-morpholino-2-piperazino-pyrimido-[5,4-d]-pyrimidine], the LD50 at 168 h in data set [2] is more than 250 mg/kg. Also, the animals died in data set [3] is 0 out of 5 animals. The EC50 in data set [1] turned out to be 8.5 nM.

As to `CSc1ncnc2c(N3CC[S+]([O-])CC3)nc(N3CCNCC3)nc12` [Compound A, 8-Methylthio-4-(1-oxido-thiomorpholino)-2-piperazino-pyrimido-[5,4-d]-pyrimidine], the 50% effective concentration (EC50) in data set [1] was found to be 1 nM.

Regarding `[O-][S+]1CCN(c2nc(N3CCNCC3)nc3c(SCCc4ccccc4)ncnc23)CC1` [Compound E, 4-(1-Oxido-thiomorpholino)-8-phenethylthio-2-piperazino-pyrimido-[5,4-d]-pyrimidine], in data set [2], the LD50 at 168 h was more than 250 mg/kg. Further, in data set [3], the animals died is recorded as 0 out of 5 animals. In data set [1], the concentration for a half-maximal effect (EC50) worked out at 22 nM.

With `[O-][S+]1CCN(c2nc(N3CCNCC3)nc3c(SCc4ccccc4)ncnc23)CC1` [D, 8-Benzylthio-4-(1-oxido-thiomorpholino)-2-piperazino-pyrimido-[5,4-d]-pyrimidine], the LD50 at 168 h in data set [2] was more than 250 mg/kg. In addition, in data set [3], the animals died is listed as 0 out of 5 animals. Moreover, in data set [1], the 50% effective concentration (EC50) was 30 nM.

With `[O-][S+]1CCN(c2nc(N3CCN(CCO)CC3)nc3c(SCc4ccccc4)ncnc23)CC1` [F, 8-Benzylthio-2-[N-(2-hydroxyethyl)-piperazino]-4-(1-oxido-thiomorpholino)-pyrimido-[5,4-d]-pyrimidine], the LD50 at 168 h in data set [2] is more than 250 mg/kg. Also, the animals died in data set [3] is 0 out of 5 animals. Further, the EC50 in data set [1] is 380 nM.

Turning to `CCN(CC)CCSc1ncnc2c(N3CC[S+]([O-])CC3)nc(N3CCNCC3)nc12` [G, 8-(2-Diethylaminoethyl-thio)-4-(1-oxido-thiomorpholino)-2-piperazino-pyrimido-[5,4-d]-pyrimidine], in data set [2], the LD50 at 168 h was more than 250 mg/kg. Moreover, the animals died in data set [3] is given as 0 out of 5 animals. In addition, the concentration giving a half-maximal response (EC50) in data set [1] is 20 nM.

Consider `O=C(c1ccco1)N1CCN(c2nc(N3CCOCC3)c3ncnc(SCc4ccccc4)c3n2)CC1` [H, 8-Benzylthio-2-[N-(2-furoyl)-piperazino]-4-morpholino-pyrimido-[5,4-d]-pyrimidine], for which, in data set [2], the LD50 at 168 h was more than 250 mg/kg. In data set [3], the animals died is on record as 0 out of 5 animals. In addition, the half-maximal effective concentration (EC50) in data set [1] is 100 nM.

Regarding `COc1ccc(CSc2ncnc3c(N4CCOCC4)nc(N4CCNCC4)nc23)cc1OC` [I, 8-(3,4-dimethoxybenzyl-thio)-4-morpholino-2-piperazino-pyrimido-[5,4-d]-pyrimidine], in data set [1], the EC50 came to 10 nM.

Regarding `CN1CCN(c2nc(N3CC[S+]([O-])CC3)c3ncnc(SCc4ccccc4)c3n2)CC1` [K, 8-Benzylthio-2-(N-methyl-piperazino)-4-(1-oxido-thio-morpholino)-pyrimido-[5,4-d]-pyrimidine], the LD50 at 168 h in data set [2] is more than 250 mg/kg. In addition, the animals died in data set [3] was 0 out of 5 animals. Also, the EC50 in data set [1] worked out at 350 nM.

For `Clc1ccc(CSc2ncnc3c(N4CCOCC4)nc(N4CCNCC4)nc23)c(Cl)c1` [L, 8-(2,4-Dichlorobenzyl-thio)-4-morpholino-2-piperazino-pyrimido-[5,4-d]-pyrimidine], the LD50 at 168 h in data set [2] is more than 250 mg/kg. For the same compound, the animals died in data set [3] is on record as 0 out of 5 animals. In addition, in data set [1], the concentration giving a half-maximal response (EC50) was determined as 8 nM.

Take `O=CN1CCN(c2nc(N3CC[S+]([O-])CC3)c3ncnc(SCc4ccccc4)c3n2)CC1` [M, 8-Benzylthio-2-(N-formyl-piperazino)-4-(1-oxido-thiomorpholino)-pyrimido-[5,4-d]-pyrimidine]: in data set [2], the LD50 at 168 h is more than 250 mg/kg. The animals died in data set [3] was 0 out of 5 animals. In addition, the EC50 in data set [1] turned out to be 15 nM.

For `OCCOc1ncnc2c(N3CCOCC3)nc(N3CCNCC3)nc12` [N, 8-(2-Hydroxyethoxy)-4-morpholino-2-piperazino-pyrimido-[5,4-d]-pyrimidine], the EC50 in data set [1] worked out at 40 nM.

As for `[O-][S+]1CCN(c2nc(N3CCNCC3)nc3c(SCCO)ncnc23)CC1` [O, 8-(2-Hydroxyethyl-thio)-4-(1-oxido-thiomorpholino)-2-piperazino-pyrimido-[5,4-d]-pyrimidine], in data set [2], the LD50 at 168 h was more than 250 mg/kg. Moreover, the animals died in data set [3] was 0 out of 5 animals. Moreover, the half-maximal effective concentration (EC50) in data set [1] came out at 28 nM.

Turning to `c1ccc(Sc2ncnc3c(N4CCSCC4)nc(N4CCNCC4)nc23)cc1` [P, 8-Phenylthio-2-piperazino-4-thiomorpholino-pyrimido-[5,4-d]-pyrimidine], in data set [1], the EC50 was approximately 100 nM.

For `[O-][S+]1CCN(c2nc(N3CCNCC3)nc3c(OCc4ccccc4)ncnc23)CC1` [Q, 8-Benzyloxy-4-(1-oxido-thiomorpholino)-2-piperazino-pyrimido-[5,4-d]-pyrimidine], in data set [2], the LD50 at 168 h is more than 250 mg/kg. Besides, in data set [3], the animals died is listed as 0 out of 5 animals. Moreover, the EC50 in data set [1] was determined as 3.6 nM.

Consider `[O-][S+]1CCN(c2nc(N3CCNCC3)nc3c(NCc4ccccc4)ncnc23)CC1` [R, 8-Benzylamino-4-(1-oxido-thiomorpholino)-2-piperazino-pyrimido-[5,4-d]-pyrimidine], for which the LD50 at 168 h in data set [2] is more than 250 mg/kg. Moreover, the animals died in data set [3] is given as 0 out of 5 animals. Also, the EC50 in data set [1] turned out to be 4.2 nM.

Take `CN(Cc1ccccc1)c1ncnc2c(N3CC[S+]([O-])CC3)nc(N3CCNCC3)nc12` [S, 8-(N-Benzyl-methylamino)-4-(1-oxido-thiomorpholino)-2-piperazino-pyrimido-[5,4-d]-pyrimidine]: the LD50 at 168 h in data set [2] was more than 250 mg/kg. Also, the animals died in data set [3] is on record as 0 out of 5 animals. The 50% effective concentration (EC50) in data set [1] was determined as 3 nM.

In the case of `c1ccc(CNc2ncnc3c(N4CCSCC4)nc(N4CCNCC4)nc23)cc1` [T, 8-Benzylamino-2-piperazino-4-thiomorpholino-pyrimido-[5,4-d]-pyrimidine], the LD50 at 168 h in data set [2] is more than 250 mg/kg. Moreover, the animals died in data set [3] is 0 out of 5 animals. In data set [1], the EC50 came to 250 nM.

As to `CN(Cc1ccccc1)c1ncnc2c(N3CC[S+]([O-])CC3)nc(N3CCN(C=O)CC3)nc12` [U, 8-(N-Benzyl-methylamino)-2-(N-formyl-piperazino)-4-(1-oxido-thiomorpholino)-pyrimido-[5,4-d]-pyrimidine], the LD50 at 168 h in data set [2] was more than 250 mg/kg. Also, in data set [3], the animals died is on record as 1 out of 5 animals. Besides, the EC50 in data set [1] turned out to be 290 nM.

In the case of `[O-][S+]1CCN(c2nc(N3CCNCC3)nc3c(Nc4ccccc4)ncnc23)CC1` [V, 8-Anilino-4-(1-oxido-thiomorpholino)-2-piperazino-pyrimido-[5,4-d]-pyrimidine], the LD50 at 168 h in data set [2] is more than 250 mg/kg. Also, the animals died in data set [3] is listed as 1 out of 5 animals. Moreover, the EC50 in data set [1] was found to be 30 nM.

One may read the EC50 as the concentration at which the effect is half-maximal.

These data come from patent US4690923A, “2-(Perhydro-1,4-diazino)-pyrimido(5,4-D)-pyrimidines, pharmaceutical compositions and use” (Karl Thomae GmbH, priority 1979, dated 1987).
